Series [1] can be described thus: Bulk and tap density (25 g in 100-ml graduated cylinder; 500 taps). The class given is physicochemical. As to conditions: for Bulk density: 25 g, volume in 100-ml graduated cylinder; for Bulk density / Tap density: hemihydrate; for Tap density: after 500 taps. The procedure:
The bulk and tap densities of the crystallised 1-(β-D-glucopyranosyl)-4-methyl-3-[5-(4-fluorophenyl)-2-thienylmethyl] benzene hemihydrate were measured. The bulk density of 25 g of compound (I) was measured by recording its volume in a 100-ml graduated cylinder. Tap density volume was then measured after 500 taps.

Series [2] is described as follows: Particle size distribution by laser diffraction (Malvern Mastersizer 2000, wet dispersion). The format is physicochemical. As to conditions: Fraunhofer optical model, hemihydrate; for particle size distribution D10: d10 cumulative undersize by volume, dispersed in 1% (w/v) polysorbate 20 in water; for particle size distribution D50: d50 cumulative undersize by volume; for particle size distribution D90: d90 cumulative undersize by volume. The procedure: Particle size of original compound (I) and crystallised compound (I) according to the procedure of Example 1 have been determined with laser diffraction (LD). For this purpose, a Malvern Mastersizer 2000 laser diffractometer (Malvern, U.K.) has been used, which was equipped with a Hydro 2000S wet dispersion module. Prior to analysis, an amount of ca. 200 mg of the product was dispersed in 1% (w/v) polysorbate 20 in water by means of vigorous shaking for 30 seconds. A representative portion of this dispersion was than added to the reservoir of the wet dispersion module, which for this purpose was filled with water. The liquid medium was circulated via the measurement cell of the instrument, to allow measurement of the product specific scattering pattern. Based on the scattering intensities as measured under different angles relative to the incoming collimated laser beam, for compound (I) the particle size distribution (PSD) by volume was calculated based on the Fraunhofer optical model. For the PSD, the d10, d50 and d90 cumulative undersize were reported as the relevant statistical descriptors.

These results are taken from patent publication US8772512B2, “Crystallisation process for 1-(β-D-glucopyranosyl)-4-methyl-3-[5-(4-fluorophenyl)-2-thienylmethyl] benzene” (Janssen Pharmaceutica NV, priority 2009, dated 2014).

In the case of `Cc1ccc([C@@H]2O[C@H](CO)[C@@H](O)[C@H](O)[C@H]2O)cc1Cc1ccc(-c2ccc(F)cc2)s1` [crystallised compound (I), 1-(β-D-glucopyranosyl)-4-methyl-3-[5-(4-fluorophenyl)-2-thienylmethyl] benzene hemihydrate], in series [1], the Bulk density is 0.35 g/mL and the Tap density worked out at 0.54 g/mL. Moreover, the “bulk density higher than for original compound (I)” value in series [1] (crystallised according to Example 1 versus original compound (I)) worked out at 20%. In series [2], the “particle size distribution D10” value is on record as 20 μm, the “particle size distribution D50” value amounted to 49 μm and the “particle size distribution D90” value is given as 102 μm.
As for `Cc1ccc([C@@H]2O[C@H](CO)[C@@H](O)[C@H](O)[C@H]2O)cc1Cc1ccc(-c2ccc(F)cc2)s1` [original compound (I), 1-(β-D-glucopyranosyl)-4-methyl-3-[5-(4-fluorophenyl)-2-thienylmethyl] benzene hemihydrate], in series [1], the Bulk density was found to be 0.28 g/mL and the Tap density turned out to be 0.48 g/mL. In addition, in series [2], the “particle size distribution D10” value came out at 14 μm, the “particle size distribution D50” value is 43 μm and the “particle size distribution D90” value amounted to 116 μm.
